Measurements taken from the supplement of paper PMC10307832.

compound: Cc1ccc2nc(NCCN)c3ncc(C)n3c2c1 + Cc1cc(Nc2cc(N3CCN(C)CC3)nc(Sc3ccc(NC(=O)C4CC4)cc3)n2)n[nH]1 [Tozasertib] (partner 0.1 µM); assay: relative viability (nuclei count vs DMSO), 5 days (fraction); higher = more cells survive; details: first compound 0.04 µM
In short: (§1)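 Medians of duplicate plates are given as relative viability. That measure is the nuclei count in treated wells divided by the count in vehicle wells. Counts were taken on 4× images of lung cancer cell lines in 1536-well plates, 5 days after pin-tool dosing the day after seeding with one drug alone or a fixed anchor-drug dose plus five library-drug doses (not always all listed) in √10 steps.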

| Cell Line | relative viability |
| --- | --- |
| NCI-H522 | 0.557 |
| NCI-H2342 | 0.481 |
| NCI-H727 | 0.599 |
| NCI-H1650 | 0.434 |
| NCI-H1993 | 0.602 |
| SW 1573 | 0.187 |
| NCI-H838 | 0.259 |
| LCLC-103H | 0.426 |
| NCI-H520 | 0.476 |
| NCI-H2126 | 0.955 |
| EMC-BAC-2 | 0.297 |
| NCI-H2085 | 0.801 |
| HCC-366 | 0.119 |
| NCI-H1666 | 0.665 |
| NCI-H596 | 1.16 |
| COR-L23 | 0.202 |
| COR-L 105 | 0.374 |
| ChaGo-K-1 | 0.258 |
| HCC-44 | 1.06 |
| SK-MES-1 | 0.898 |
| SW 900 | 0.491 |
| NCI-H2009 | 0.754 |
| NCI-H661 | 0.358 |
| SK-LU-1 | 0.378 |
| NCI-H2228 | 0.297 |
| NCI-H2023 | 0.333 |
| NCI-H1623 | 0.453 |
| NCI-H1648 | 0.498 |

same assay, conditions: first compound 0.1265 µM

| Cell Line | relative viability |
| --- | --- |
| NCI-H522 | 0.647 |
| NCI-H2342 | 0.583 |
| NCI-H727 | 0.688 |
| NCI-H1650 | 0.431 |
| NCI-H1993 | 0.593 |
| SW 1573 | 0.177 |
| NCI-H838 | 0.287 |
| LCLC-103H | 0.525 |
| NCI-H520 | 0.458 |
| NCI-H2126 | 0.857 |
| EMC-BAC-2 | 0.282 |
| NCI-H2085 | 0.765 |
| HCC-366 | 0.135 |
| NCI-H1666 | 0.676 |
| NCI-H596 | 1.01 |
| COR-L23 | 0.243 |
| COR-L 105 | 0.355 |
| ChaGo-K-1 | 0.253 |
| HCC-44 | 0.896 |
| SK-MES-1 | 0.904 |
| SW 900 | 0.513 |
| NCI-H2009 | 0.725 |
| NCI-H661 | 0.353 |
| SK-LU-1 | 0.373 |
| NCI-H2228 | 0.266 |
| NCI-H2023 | 0.395 |
| NCI-H1623 | 0.486 |

same assay, conditions: first compound 0.4 µM

| Cell Line | relative viability |
| --- | --- |
| NCI-H522 | 0.555 |
| NCI-H2342 | 0.47 |
| NCI-H727 | 0.704 |
| NCI-H1650 | 0.513 |
| NCI-H1993 | 0.543 |
| SW 1573 | 0.19 |
| NCI-H838 | 0.278 |
| LCLC-103H | 0.384 |
| NCI-H520 | 0.371 |
| NCI-H2126 | 0.869 |
| EMC-BAC-2 | 0.313 |
| NCI-H2085 | 0.881 |
| HCC-366 | 0.215 |
| NCI-H1666 | 0.677 |
| NCI-H596 | 0.922 |
| COR-L23 | 0.218 |
| COR-L 105 | 0.294 |
| ChaGo-K-1 | 0.253 |
| HCC-44 | 1.04 |
| SK-MES-1 | 0.921 |
| NCI-H2009 | 0.72 |
| NCI-H661 | 0.366 |
| SK-LU-1 | 0.392 |
| NCI-H2228 | 0.279 |
| NCI-H2023 | 0.361 |
| NCI-H1623 | 0.451 |
| NCI-H1648 | 0.546 |

same assay, conditions: first compound 1.265 µM

| Cell Line | relative viability |
| --- | --- |
| NCI-H522 | 0.517 |
| NCI-H2342 | 0.599 |
| NCI-H727 | 0.578 |
| NCI-H1650 | 0.439 |
| NCI-H1993 | 0.566 |
| SW 1573 | 0.214 |
| NCI-H838 | 0.304 |
| LCLC-103H | 0.427 |
| NCI-H520 | 0.424 |
| NCI-H2126 | 0.852 |
| EMC-BAC-2 | 0.265 |
| NCI-H2085 | 0.703 |
| HCC-366 | 0.116 |
| NCI-H1666 | 0.502 |
| NCI-H596 | 0.883 |
| COR-L23 | 0.135 |
| COR-L 105 | 0.353 |
| ChaGo-K-1 | 0.236 |
| HCC-44 | 0.753 |
| SK-MES-1 | 0.929 |
| SW 900 | 0.471 |
| NCI-H2009 | 0.734 |
| NCI-H661 | 0.321 |
| SK-LU-1 | 0.339 |
| NCI-H2228 | 0.224 |
| NCI-H2023 | 0.32 |
| NCI-H1623 | 0.355 |

same assay, conditions: first compound 4 µM

| Cell Line | relative viability |
| --- | --- |
| NCI-H522 | 0.592 |
| NCI-H2342 | 0.463 |
| NCI-H727 | 0.641 |
| NCI-H1650 | 0.296 |
| NCI-H1993 | 0.581 |
| SW 1573 | 0.157 |
| NCI-H838 | 0.26 |
| LCLC-103H | 0.439 |
| NCI-H520 | 0.405 |
| NCI-H2126 | 0.734 |
| EMC-BAC-2 | 0.288 |
| NCI-H2085 | 0.802 |
| HCC-366 | 0.221 |
| NCI-H1666 | 0.544 |
| NCI-H596 | 0.863 |
| COR-L23 | 0.173 |
| COR-L 105 | 0.302 |
| ChaGo-K-1 | 0.238 |
| HCC-44 | 0.645 |
| SK-MES-1 | 0.678 |
| SW 900 | 0.612 |
| NCI-H2009 | 0.541 |
| NCI-H661 | 0.372 |
| SK-LU-1 | 0.308 |
| NCI-H2228 | 0.219 |
| NCI-H2023 | 0.251 |
| NCI-H1623 | 0.354 |
| NCI-H1648 | 0.3 |

compound: Cc1ccc2nc(NCCN)c3ncc(C)n3c2c1 + COc1cc2c(Oc3ccc(NC(=O)C4(C(=O)Nc5ccc(F)cc5)CC4)cc3F)ccnc2cc1OCCCN1CCOCC1 [Foretinib] (partner 0.25 µM); assay: as above; details: first compound 0.04 µM
In short: as §1

| Cell Line | relative viability |
| --- | --- |
| NCI-H2342 | 1.24 |
| NCI-H727 | 1.23 |
| NCI-H1650 | 1.22 |
| EBC-1 | 0.0984 |
| NCI-H1703 | 0.307 |
| NCI-H1993 | 0.904 |
| SW 1573 | 1.02 |
| NCI-H838 | 1.16 |
| LCLC-103H | 0.753 |
| NCI-H520 | 0.878 |
| NCI-H2126 | 1.41 |
| EMC-BAC-2 | 0.966 |
| NCI-H2085 | 0.903 |
| Calu-6 | 0.855 |
| HCC-366 | 0.914 |
| NCI-H1666 | 0.96 |

| Cell Line | relative viability |
| --- | --- |
| NCI-H596 | 0.811 |
| COR-L23 | 0.966 |
| COR-L 105 | 1.18 |
| IA-LM | 1.19 |
| ChaGo-K-1 | 0.897 |
| A549 | 1.08 |
| SK-MES-1 | 1.04 |
| SW 900 | 1.11 |
| NCI-H2009 | 1.22 |
| NCI-H661 | 1.02 |
| SK-LU-1 | 0.824 |
| NCI-H1299 | 1.12 |
| NCI-H2228 | 0.896 |
| NCI-H2023 | 0.932 |
| NCI-H1623 | 0.945 |
| NCI-H1563 | 0.954 |

same assay, conditions: first compound 0.1265 µM

| Cell Line | relative viability |
| --- | --- |
| NCI-H2342 | 1.06 |
| NCI-H727 | 0.778 |
| NCI-H1650 | 1.15 |
| EBC-1 | 0.102 |
| NCI-H1703 | 0.316 |
| NCI-H1993 | 0.685 |
| SW 1573 | 0.966 |
| NCI-H838 | 1.08 |
| LCLC-103H | 0.919 |
| NCI-H520 | 0.949 |
| NCI-H2126 | 1.07 |
| EMC-BAC-2 | 0.992 |
| NCI-H2085 | 1.14 |
| Calu-6 | 0.841 |
| HCC-366 | 0.945 |
| NCI-H1666 | 0.903 |

| Cell Line | relative viability |
| --- | --- |
| NCI-H596 | 0.81 |
| COR-L23 | 0.915 |
| COR-L 105 | 0.995 |
| IA-LM | 1.25 |
| ChaGo-K-1 | 1.03 |
| A549 | 0.85 |
| SK-MES-1 | 0.91 |
| SW 900 | 1.08 |
| NCI-H2009 | 1.23 |
| NCI-H661 | 0.983 |
| SK-LU-1 | 0.836 |
| NCI-H1299 | 1.14 |
| NCI-H2228 | 0.764 |
| NCI-H2023 | 0.522 |
| NCI-H1623 | 0.94 |
| NCI-H1563 | 0.882 |

same assay, conditions: first compound 0.4 µM

| Cell Line | relative viability |
| --- | --- |
| NCI-H2342 | 0.987 |
| NCI-H727 | 0.894 |
| NCI-H1650 | 1.22 |
| EBC-1 | 0.098 |
| NCI-H1703 | 0.322 |
| NCI-H1993 | 0.748 |
| SW 1573 | 1.09 |
| NCI-H838 | 1.04 |
| LCLC-103H | 0.802 |
| NCI-H520 | 0.647 |
| NCI-H2126 | 1.18 |
| EMC-BAC-2 | 0.988 |
| NCI-H2085 | 0.941 |
| Calu-6 | 0.815 |
| HCC-366 | 0.934 |
| NCI-H1666 | 1.04 |

| Cell Line | relative viability |
| --- | --- |
| NCI-H596 | 0.912 |
| COR-L23 | 0.938 |
| COR-L 105 | 0.86 |
| IA-LM | 1.07 |
| ChaGo-K-1 | 0.884 |
| A549 | 0.975 |
| SK-MES-1 | 1.01 |
| NCI-H2009 | 1.24 |
| NCI-H661 | 1.03 |
| SK-LU-1 | 0.9 |
| NCI-H1299 | 1.09 |
| NCI-H2228 | 0.829 |
| NCI-H2023 | 1.01 |
| NCI-H1623 | 0.897 |
| NCI-H1563 | 0.872 |

same assay, conditions: first compound 1.265 µM

| Cell Line | relative viability |
| --- | --- |
| NCI-H2342 | 1.05 |
| NCI-H727 | 0.911 |
| NCI-H1650 | 1.13 |
| EBC-1 | 0.0921 |
| NCI-H1703 | 0.368 |
| NCI-H1993 | 0.626 |
| SW 1573 | 0.945 |
| NCI-H838 | 1.02 |
| LCLC-103H | 0.761 |
| NCI-H520 | 0.892 |
| NCI-H2126 | 1.2 |
| EMC-BAC-2 | 1.01 |
| NCI-H2085 | 0.929 |
| Calu-6 | 0.833 |
| HCC-366 | 0.945 |
| NCI-H1666 | 1.02 |

| Cell Line | relative viability |
| --- | --- |
| NCI-H596 | 0.889 |
| COR-L23 | 1.01 |
| COR-L 105 | 0.987 |
| IA-LM | 1.16 |
| ChaGo-K-1 | 0.82 |
| A549 | 0.921 |
| SK-MES-1 | 0.853 |
| SW 900 | 0.684 |
| NCI-H2009 | 1.23 |
| NCI-H661 | 1.1 |
| SK-LU-1 | 0.791 |
| NCI-H1299 | 1.05 |
| NCI-H2228 | 0.798 |
| NCI-H2023 | 0.803 |
| NCI-H1623 | 0.761 |
